These results are taken from patent publication US20080057010A1, “METHOD FOR SKIN CARE” (NULIV SCIENCE LTD., priority 2006, published 2008).

Assay [1] has as its system HA synthase 2 (HAS2). As to the kind of experiment: Quantitative analysis of HA synthase 2 (HAS2) transcripts in HaCaT cells (qRT-PCR). In kind it is cell-based, human. The conditions noted are these: 0.1 μM, qRT-PCR normalized to GAPDH, relative to 0 = 1.00. The procedure: Relative levels of HAS2 expression in HaCaT cells were determined by real-time quantitative reverse transcriptase polymerase chain reaction (qRT-PCR). Total RNAs were isolated from the cultured human cells using TRIzol reagent (Invitrogen, Irvine, Calif., USA). 1 μg of RNA was reverse transcribed, at 37° C. for 60 min in a 20 μl transcription mixture containing dNTP (0.5 mM), oligo-dT (0.1 μg), RNasin (10 units), 1×PCR buffer (20 mM Tris-HCl, pH 8.3; 2.5 mM MgCl2; 50 mM KCl), and 100 units of Moloney murine leukemia virus reverse transcriptase (Invitrogen). The cDNA product was phenol extracted, ethanol precipitated, and resuspended in 20 μl TE (20 mM Tris-Cl, pH 8.0 and 1 mM EDTA). qRT-PCR was performed using the Applied Biosystem 7300 system and pre-developed Taqman Gene Expression Assays (Applied Biosystems, Foster City, Calif., USA). The reaction mixtures (20-μl total volume) contained 2 μl of serially diluted cDNA, 10 μl of Taqman Universal PCR Master Mix (Applied Biosystems), and 1 μl of either human HAS-2 gene (assay ID Hs 00193435_ml, Applied Biosystems), or GAPDH primer mix (assay ID Hs99999905_ml, Applied Biosystems). The reactions were amplified as follows: 50° C. for 2 min and 95° C. for 10 min, followed by 40 cycles of 95° C. for 1 min and 65° C. for 1 min. Two independent triplicate experiments were performed for the selected genes. Relative quantitation was performed using the 7300 software (Applied Biosystems, Foster City, Calif., USA). Expression of HAS-2 was normalized to GAPDH expression in each sample.

Assay [2] concerns collagen I. As to the kind of experiment: Collagen I expression and secretion in human HDF cells (western blot). In kind it is cell-based. The conditions noted are these: relative to 0 = 1.00. The procedure: (§1) Primary human dermal fibroblasts cells (HDF) were purchased from Cascade Biologics (Portland, Oreg., USA) and cultured in medium 106 supplemented with 10% fetal bovine serum (FBS), 100 IU/mL penicillin, 100 μg/mL of streptomycin. The cells from passages 4 to 10 were used for this study. Culture medium was replaced every other day. After confluence, the cells were subcultured following trypsinization. For subcultures cells were harvested after brief treatment with 0.1% trypsin/EDTA solution and seeded at a dilution of 1:10. The cells were seeded at 1×10^5 cells in 6-well culture plate for 24 h before treated with astragalosides or crude extracts, such as butanol fraction and water insoluble fraction of Astragalus membranaceus for the indicated time periods. Control cultures were maintained in medium supplemented with vehicle (dimethyl sulfoxide, DMSO, 0.1%). No growth and differentiation effects of DMSO were observed under these culture conditions.
(§2) The cells were treated with pure compounds such as astragaloside I (AS 1), astragaloside II (AS2), astragaloside III (AS3), astragaloside IV (AS4), astragaloside VI (AS6), isoastragaloside I (isoAS1), isoastragaloside II (isoAS2), and cycloastragenol 6-O-β-D-glucopyranose (AA) at concentrations of 0-10 μM. Alternatively, the cells were also treated with the crude extracts, such as butanol fraction and water insoluble fraction of Astragalus membranaceus at concentrations of 0, 1, 10, and 40 μg/mL. The cells were treated with the indicated compounds or the extracts for 24 h before harvested for analysis of collagen I and III expressed in the whole cell extract or secreted into the culture medium.
(§3) Western blot analysis was carried out on both of cultured medium and cell lysates. The cells were plated on 6-cm dishes at a density of 1×10^6 cells/dish for 24 h prior to treatment with indicated concentrations of astragalus triterpenoids as indicated for another 48 h. The conditioned culture mediums were then centrifuged, 2-fold concentrated and collected for assay of collagens and MMPs secreted into the culture medium. The cells were washed and lysed in 0.2 mL of lysis buffer (1% NP-40, 50 mM Tris-HCl, pH 7.4, 180 mM NaCl, 1 mM EDTA, 1 mM PMSF, 1 mM NaF, 10 mM Na3VO4) for 30 min at 4° C. After centrifuging at 17500 g for 15 min, the supernatants of cell lysate were also collected. Protein concentration of the samples were measured using the bicinchoninic acid (BCA) protein assay kit according to the manufacturer's protocol (Pierce, Rockford, Ill., USA). Equal amount of protein samples of concentrated conditioned medium (100 μg) or cell lysate supernatants (50 μg) were mixed with an appropriate volume of 4×SDS sampling buffer and separated by 8% SDS-PAGE gel. The protein bands separated in the SDS-PAGE gel were blotted onto a polyvinylidene fluoride (PVDF) membrane. The blotted PVDF membrane was washed twice and blocked in freshly prepared Tris-buffered saline (TBS) containing 0.1% Tween-20 and 7% skim milk (TBST) for 2 h at room temperature. The PVDF membrane was then incubated with either antibodies against collagen I and III or the housekeeping protein α-tubulin (Santa Cruz Biotechnology, Santa Cruz, Calif.) for 18 h at 4° C. Horseradish peroxidase-conjugated anti-goat antibody was used as secondary antibody. Signals were visualized by an enhanced chemiluminescence kit (Clonetech, Palo Alto, Calif., USA) followed by exposure to X-ray films.
The collagen expression in the human HDF cells was also determined. […] And Collage I was over-expressed in the cells treated with various doses (1, 10, 40 μg/mL) of the crude extracts, such as butanol fraction and water insoluble fraction of Astragalus membranaceus.

Assay [3] has as its system collagen I. Briefly: Collagen I expression in human HaCaT cells (western blot). Type of assay: cell-based. The conditions noted are these: relative to 0 μM = 1.00. Here is the method: The Spontaneously transformed human keratinocyte cell lines HaCaT cells were grown at 37° C. in a humidified incubator under 5% CO2 and 95% air in culture medium such as Dulbecco Modified Eagle Medium (DMEM) supplemented with 10% Fetal Bovine Serum (FBS), 100 IU/mL penicillin, 100 μg/mL of streptomycin, 2 mM sodium pyruvate and 1% Non-Essential Amino Acids (NEAA). The culture medium was replaced every other day. After confluence, the cells were subcultured following trypsinization. For subcultures cells were harvested after brief treatment with 0.1% trypsin/ethylenediaminetetraacetic acid (EDTA) solution and seeded at a dilution of 1:10. Cells between passages 12 and 45 were used for studies. The cells were seeded and incubated for 24 h before treated with the astragalosides for 24 h. Control cultures were maintained in medium supplemented with vehicle (dimethyl sulfoxide (DMSO) 0.1%). No growth and differentiation effects of DMSO were observed under these culture conditions.
as §2, §3
Results shown represent the quantitated data from western blot analysis. […] The collagen I was also over-expressed in the human HaCaT cells treated with 40 μg/mL of astragaloside extract.
(Immunoblotting shows a protein as a band on a membrane.)

The test system of assay [4] is collagen III. As to the kind of experiment: Collagen III expression and secretion in human HDF cells (western blot). In kind it is cell-based. To be noted: relative to 0 = 1.00. The procedure: as §1, §2, §3

The molecule `CC(=O)O[C@H]1[C@H](O[C@H]2CC[C@]34C[C@]35CC[C@]3(C)[C@@H]([C@@]6(C)CC[C@@H](C(C)(C)O)O6)[C@@H](O)C[C@@]3(C)[C@@H]5C[C@H](O[C@@H]3O[C@H](CO)[C@@H](O)[C@H](O)[C@H]3O)[C@H]4C2(C)C)OC[C@@H](O)[C@@H]1O` [AS2, astragaloside II] returned an HAS-2 in cell in assay [1] of 2.73. For the same molecule, the “Collagen I in cell” value worked out at 1.02 in assay [2] (0.01 μM); 0.73 in assay [2] (0.1 μM); 1.26 in assay [2] (1 μM); 0.86 in assay [3] (0.01 μM); 1.14 in assay [3] (0.1 μM); 1.87 in assay [3] (1 μM). For the same molecule, the “Collagen I in medium” value in assay [2] (0.01 μM) worked out at 1.24; in assay [2] (0.1 μM), 1.15; in assay [2] (1 μM) it was 1.02. Besides, the “Collagen III in medium” value is 1.26 in assay [4] (0.01 μM), 1.74 in assay [4] (0.1 μM) and 0.94 in assay [4] (1 μM).
Take `CC(C)(O)[C@@H]1CC[C@](C)([C@H]2[C@@H](O)C[C@@]3(C)[C@@H]4C[C@H](O)[C@H]5C(C)(C)[C@@H](O[C@@H]6OC[C@@H](O)[C@H](O)[C@H]6O[C@@H]6O[C@H](CO)[C@@H](O)[C@H](O)[C@H]6O)CC[C@@]56C[C@@]46CC[C@]23C)O1` [AS3, astragaloside III]: the “Collagen III in medium” value in assay [4] (0.01 μM) is given as 2.18; in assay [4] (0.1 μM), 1.79; in assay [4] (1 μM) it was 1.51.
For the molecule `CC(C)(O)[C@@H]1CC[C@](C)([C@H]2[C@@H](O)C[C@@]3(C)[C@@H]4C[C@H](O[C@@H]5O[C@H](CO)[C@@H](O)[C@H](O)[C@H]5O)[C@H]5C(C)(C)[C@@H](O[C@@H]6OC[C@@H](O)[C@H](O)[C@H]6O)CC[C@@]56C[C@@]46CC[C@]23C)O1` [AS4, astragaloside IV], in assay [1], the HAS-2 in cell is on record as 1.41. Besides, the “Collagen I in cell” value is listed as 1.16 in assay [2] (0.01 μM), 1.33 in assay [2] (0.1 μM) and 1.07 in assay [2] (1 μM). Besides, the “Collagen I in medium” value in assay [2] (0.01 μM) came out at 1.24; in assay [2] (0.1 μM), 1.11; in assay [2] (1 μM), 1.11.
On to `CC(C)(O)[C@@H]1CC[C@](C)([C@H]2[C@@H](O)C[C@@]3(C)[C@@H]4C[C@H](O[C@@H]5O[C@H](CO)[C@@H](O)[C@H](O)[C@H]5O)[C@H]5C(C)(C)[C@@H](O[C@@H]6OC[C@@H](O)[C@H](O)[C@H]6O[C@@H]6O[C@H](CO)[C@@H](O)[C@H](O)[C@H]6O)CC[C@@]56C[C@@]46CC[C@]23C)O1` [AS6, astragaloside VI], for which the “Collagen I in cell” value is on record as 1.18 in assay [2] (0.01 μM), 1.41 in assay [2] (0.1 μM) and 1.30 in assay [2] (1 μM). Besides, the “Collagen I in medium” value in assay [2] (0.01 μM) came out at 1.19; in assay [2] (0.1 μM) it was 1.29; in assay [2] (1 μM) it was 1.25. For the same molecule, the “Collagen III in cell” value worked out at 1.65 in assay [4] (0.01 μM), 1.37 in assay [4] (0.1 μM) and 0.95 in assay [4] (1 μM).
With `CC(=O)O[C@H]1[C@H](O[C@H]2CC[C@]34C[C@]35CC[C@]3(C)[C@@H]([C@@]6(C)CC[C@@H](C(C)(C)O)O6)[C@@H](O)C[C@@]3(C)[C@@H]5C[C@H](O[C@@H]3O[C@H](CO)[C@@H](O)[C@H](O)[C@H]3O)[C@H]4C2(C)C)OC[C@@H](OC(C)=O)[C@@H]1O` [isoAS1, isoastragaloside I], in assay [1], the HAS-2 in cell is recorded as 1.12. Moreover, the “Collagen I in cell” value in assay [2] (0.01 μM) turned out to be 0.71; in assay [2] (0.1 μM), 1.11; in assay [2] (1 μM) it was 1.27; in assay [3] (0.01 μM), 1.13; in assay [3] (0.1 μM), 1.06; in assay [3] (1 μM), 1.19. Also, the figures for the “Collagen I in medium” value in assay [2] (0.01 μM), in assay [2] (0.1 μM) and in assay [2] (1 μM) were 1.20, 1.08 and 0.96, respectively.
The molecule `CC(=O)O[C@@H]1[C@@H](O)[C@H](O[C@H]2CC[C@]34C[C@]35CC[C@]3(C)[C@@H]([C@@]6(C)CC[C@@H](C(C)(C)O)O6)[C@@H](O)C[C@@]3(C)[C@@H]5C[C@H](O[C@@H]3O[C@H](CO)[C@@H](O)[C@H](O)[C@H]3O)[C@H]4C2(C)C)OC[C@H]1O` [isoAS2, isoastragaloside II] registered an HAS-2 in cell in assay [1] of 1.28. Also, the figures for the “Collagen I in cell” value in assay [3] (0.01 μM), in assay [3] (0.1 μM) and in assay [3] (1 μM) were 1.52, 0.94 and 1.41, respectively. The “Collagen III in medium” value in assay [4] (0.01 μM) turned out to be 1.00; in assay [4] (0.1 μM), 1.07; in assay [4] (1 μM) it was 1.18.
As for astragaloside I [AS1], the figures for the “Collagen I in cell” value in assay [3] (0.01 μM), in assay [3] (0.1 μM) and in assay [3] (1 μM) were 1.13, 0.72 and 1.22, respectively. Further, the figures for the “Collagen III in cell” value in assay [4] (0.01 μM), in assay [4] (0.1 μM) and in assay [4] (1 μM) were 1.16, 1.08 and 1.18, respectively. Besides, the “Collagen III in medium” value is 1.38 in assay [4] (0.01 μM), 1.19 in assay [4] (0.1 μM) and 1.77 in assay [4] (1 μM).
